{"source": "ChEMBL document CHEMBL2151036", "about": "“Chemocentric informatics approach to drug discovery: identification and experimental validation of selective estrogen receptor modulators as ligands of 5-hydroxytryptamine-6 receptors and as potential cognition enhancers” (J Med Chem, 2012)", "biological_target": "5-hydroxytryptamine receptor 6 (Homo sapiens, UniProt P50406)", "sequence (P50406 whole entry)": "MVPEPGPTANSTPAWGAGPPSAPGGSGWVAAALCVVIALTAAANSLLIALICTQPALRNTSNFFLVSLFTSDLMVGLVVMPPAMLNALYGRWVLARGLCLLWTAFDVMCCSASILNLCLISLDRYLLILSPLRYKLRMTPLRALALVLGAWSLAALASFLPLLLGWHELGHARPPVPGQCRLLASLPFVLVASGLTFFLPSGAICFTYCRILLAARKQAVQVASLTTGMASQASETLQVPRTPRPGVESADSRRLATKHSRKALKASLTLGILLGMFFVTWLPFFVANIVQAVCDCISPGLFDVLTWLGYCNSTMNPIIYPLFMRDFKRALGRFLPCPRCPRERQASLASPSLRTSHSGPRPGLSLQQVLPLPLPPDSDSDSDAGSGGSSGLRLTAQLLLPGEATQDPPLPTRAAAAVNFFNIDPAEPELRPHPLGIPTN", "test": "Displacement of [3H]LSD from human 5HT6 receptor expressed in HEK293 cells after 1.5 hrs by liquid scintillation counting; call rule not given here"}
{"smiles": "COc1ccccc1N1CCN(CCCCNC(=O)c2ccc3ccccc3c2)CC1", "note": "[BP-897]", "values": [{"measurement": "Ki", "setting": "hek293", "result": "Not Active"}]}
{"smiles": "CN(C)CCCN1c2ccccc2CCc2ccc(Cl)cc21", "note": "[CLOMIPRAMINE]", "values": [{"measurement": "Ki", "result": 112, "unit": "nM"}]}
{"smiles": "CC(NCCC(c1ccccc1)c1ccccc1)c1ccccc1", "note": "(stereo unspecified) [FENDILINE]", "values": [{"measurement": "Ki", "setting": "hek293", "result": "Not Active"}]}
{"smiles": "CCN(CC)CCOc1ccc(C(=C(Cl)c2ccccc2)c2ccccc2)cc1", "note": "[CLOMIPHENE]", "values": [{"measurement": "Ki", "result": 1960, "unit": "nM"}]}
{"smiles": "CNCCC=C1c2ccccc2CCc2ccccc21", "note": "[NORTRIPTYLINE]", "values": [{"measurement": "Ki", "result": 214, "unit": "nM"}]}
{"smiles": "CN(C)CCOc1ccc(/C(=C(/CCCl)c2ccccc2)c2ccccc2)cc1", "note": "[TOREMIFENE]", "values": [{"measurement": "Ki", "result": 4120, "unit": "nM"}]}
{"smiles": "O=C1NCN(c2ccccc2)C12CCN(CCCC(c1ccc(F)cc1)c1ccc(F)cc1)CC2", "values": [{"measurement": "Ki", "result": 1190, "unit": "nM"}]}
{"smiles": "O=C(c1ccc(OCCN2CCCCC2)cc1)c1c(-c2ccc(O)cc2)sc2cc(O)ccc12", "note": "[RALOXIFENE]", "values": [{"measurement": "Ki", "result": 750, "unit": "nM"}]}
{"smiles": "CC/C(=C(\\c1ccccc1)c1ccc(OCCN(C)C)cc1)c1ccccc1", "note": "[TAMOXIFEN]", "values": [{"measurement": "Ki", "result": 1040, "unit": "nM"}]}
{"smiles": "OCCN1CCN(CC/C=C2/c3ccccc3Sc3ccc(Cl)cc32)CC1", "note": "[ZUCLOPENTHIXOL]", "values": [{"measurement": "Ki", "result": 169, "unit": "nM"}]}
{"smiles": "O=c1cc(N2CCOCC2)oc2c(-c3ccccc3)cccc12", "note": "[LY-294002]", "values": [{"measurement": "Ki", "setting": "hek293", "result": "Not Active"}]}
